Activity calls are given as the source filed them. The calls are words filed in the database; no cut-off is given here.
molecular target: T1, Protein kinase C zeta type (Homo sapiens, UniProt Q05513); test: Inhibition of recombinant GST-fused PKCzeta (unknown origin) expressed in HEK293 cells using myelin basic protein as substrate measured after 40 mins in presence of [gamma32P]ATP by phosphorimaging analysis; conditions: not given
T1 sequence (Q05513 whole entry): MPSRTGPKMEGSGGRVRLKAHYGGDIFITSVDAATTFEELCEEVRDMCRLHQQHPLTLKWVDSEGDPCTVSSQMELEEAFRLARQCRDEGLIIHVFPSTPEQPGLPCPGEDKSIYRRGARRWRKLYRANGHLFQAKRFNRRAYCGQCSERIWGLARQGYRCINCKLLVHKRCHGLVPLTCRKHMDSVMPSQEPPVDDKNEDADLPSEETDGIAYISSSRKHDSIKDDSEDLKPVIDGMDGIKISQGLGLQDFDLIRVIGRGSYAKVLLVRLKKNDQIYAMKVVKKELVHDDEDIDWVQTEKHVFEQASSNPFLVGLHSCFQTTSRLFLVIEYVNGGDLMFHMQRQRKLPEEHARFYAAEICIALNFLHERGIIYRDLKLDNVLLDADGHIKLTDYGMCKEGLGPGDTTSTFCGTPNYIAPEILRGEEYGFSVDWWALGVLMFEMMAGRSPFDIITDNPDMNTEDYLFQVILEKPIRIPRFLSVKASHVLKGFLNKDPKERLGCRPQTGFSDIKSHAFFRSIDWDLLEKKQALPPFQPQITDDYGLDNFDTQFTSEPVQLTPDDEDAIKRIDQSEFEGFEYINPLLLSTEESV

Structure (SMILES)	IC50
Oc1ccc(C2=NN(c3ccc(Cl)cc3)C(c3cccc(Cl)c3)C2)cc1 (stereo unspecified)	< 100 nM
Oc1ccc(C2=NN(c3cccc(Cl)c3)C(c3ccc(Cl)cc3)C2)cc1 (stereo unspecified)	< 100 nM
Oc1ccc(C2=NN(c3ccc(Cl)cc3)C(c3ccc(Cl)cc3)C2)c(O)c1 (stereo unspecified)	4300 nM
Oc1ccc(C2=NN(c3cccc(Cl)c3)C(c3ccc(O)c(F)c3)C2)c(O)c1 (stereo unspecified)	< 100 nM
Oc1cccc(C2=NN(c3ccc(Cl)cc3)C(c3ccc(Cl)cc3)C2)c1 (stereo unspecified)	6500 nM
Oc1ccc(C2=NN(c3cccc(Cl)c3)C(c3cccc(Cl)c3)C2)cc1 (stereo unspecified)	400 nM

molecular target: T2, Protein kinase C iota type (Homo sapiens) (UniProt P41743); test: Inhibition of recombinant GST-fused PKCiota (unknown origin) expressed in HEK293 cells at 20 uM using myelin basic protein as substrate measured after 40 mins in presence of [gamma32P]ATP by phosphorimaging analysis relative to control; conditions: not given
T2 sequence (whole entry): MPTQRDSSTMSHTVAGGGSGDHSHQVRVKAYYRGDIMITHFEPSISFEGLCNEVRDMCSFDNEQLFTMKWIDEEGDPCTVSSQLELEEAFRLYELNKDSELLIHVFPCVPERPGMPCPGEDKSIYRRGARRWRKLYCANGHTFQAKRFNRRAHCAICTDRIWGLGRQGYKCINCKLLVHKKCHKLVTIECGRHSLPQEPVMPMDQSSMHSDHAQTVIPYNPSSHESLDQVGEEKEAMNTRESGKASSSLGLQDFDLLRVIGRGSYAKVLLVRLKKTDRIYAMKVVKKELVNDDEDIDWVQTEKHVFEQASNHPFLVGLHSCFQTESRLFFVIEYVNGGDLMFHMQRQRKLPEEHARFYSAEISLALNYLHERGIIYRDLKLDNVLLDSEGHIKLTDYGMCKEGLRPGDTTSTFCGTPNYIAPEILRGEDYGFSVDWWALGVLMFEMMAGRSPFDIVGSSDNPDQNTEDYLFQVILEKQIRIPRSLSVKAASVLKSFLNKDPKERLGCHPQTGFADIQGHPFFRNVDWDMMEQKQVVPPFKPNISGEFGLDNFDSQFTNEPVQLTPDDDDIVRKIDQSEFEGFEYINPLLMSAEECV

Structure (SMILES)	inhibition
Oc1ccc(C2=NN(c3ccc(Cl)cc3)C(c3cccc(Cl)c3)C2)cc1 (stereo unspecified)	18.6%
Oc1ccc(C2=NN(c3cccc(Cl)c3)C(c3ccc(Cl)cc3)C2)cc1 (stereo unspecified)	22.8%
Oc1ccc(C2=NN(c3ccc(Cl)cc3)C(c3ccc(Cl)cc3)C2)c(O)c1 (stereo unspecified)	14.8%
Oc1ccc(C2=NN(c3ccc(Cl)cc3)C(c3ccc(Cl)cc3)C2)cc1 (stereo unspecified)	24.9%
Oc1ccc(C2=NN(c3ccccc3Cl)C(c3ccccc3Cl)C2)cc1 (stereo unspecified)	30.5%
Oc1cccc(C2=NN(c3ccc(Cl)cc3)C(c3ccc(Cl)cc3)C2)c1 (stereo unspecified)	9.3%
Oc1ccc(C2=NN(c3ccc(Cl)cc3)C(c3ccc(Cl)cc3)C2)cc1O (stereo unspecified)	27.6%
Oc1ccc(C2=NN(c3cccc(Cl)c3)C(c3cccc(Cl)c3)C2)cc1 (stereo unspecified)	29%

molecular target: Protein kinase C alpha type (Homo sapiens) (UniProt P17252); test: Inhibition of PKCalpha (unknown origin) at 10 uM; conditions: not given

Structure (SMILES)	inhibition
Oc1ccc(C2=NN(c3ccc(Cl)cc3)C(c3ccc(Cl)cc3)C2)cc1O (stereo unspecified)	inactive

molecular target: Protein kinase C beta type (Homo sapiens) (UniProt P05771); test: Inhibition of PKCbeta1 (unknown origin) at 10 uM; conditions: not given
Sequence (P05771 2-671 limits assumed): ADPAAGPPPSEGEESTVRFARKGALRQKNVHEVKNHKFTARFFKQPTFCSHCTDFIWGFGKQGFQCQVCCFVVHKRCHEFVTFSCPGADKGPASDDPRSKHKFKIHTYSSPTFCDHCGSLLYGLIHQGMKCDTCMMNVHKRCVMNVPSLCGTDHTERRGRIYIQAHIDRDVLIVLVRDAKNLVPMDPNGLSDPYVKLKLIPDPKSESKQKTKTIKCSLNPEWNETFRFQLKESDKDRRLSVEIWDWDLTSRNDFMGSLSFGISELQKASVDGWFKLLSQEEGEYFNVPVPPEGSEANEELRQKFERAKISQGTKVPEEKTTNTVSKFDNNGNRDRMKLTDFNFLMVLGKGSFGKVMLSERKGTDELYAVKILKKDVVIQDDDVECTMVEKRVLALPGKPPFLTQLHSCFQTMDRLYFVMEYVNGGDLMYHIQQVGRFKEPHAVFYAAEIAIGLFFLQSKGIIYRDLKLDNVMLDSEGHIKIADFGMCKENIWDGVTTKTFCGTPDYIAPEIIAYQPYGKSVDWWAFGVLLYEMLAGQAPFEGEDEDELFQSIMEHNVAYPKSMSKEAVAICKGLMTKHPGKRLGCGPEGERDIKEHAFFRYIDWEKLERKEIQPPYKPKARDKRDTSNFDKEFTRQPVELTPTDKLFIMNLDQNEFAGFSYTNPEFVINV

Structure (SMILES)	inhibition
Oc1ccc(C2=NN(c3ccc(Cl)cc3)C(c3ccc(Cl)cc3)C2)cc1O (stereo unspecified)	inactive

molecular target: Protein kinase C beta type (Homo sapiens) (UniProt P05771); test: Inhibition of PKCbeta2 (unknown origin) at 10 uM; conditions: not given

Structure (SMILES)	inhibition
Oc1ccc(C2=NN(c3ccc(Cl)cc3)C(c3ccc(Cl)cc3)C2)cc1O (stereo unspecified)	inactive

molecular target: Protein kinase C gamma type (Homo sapiens) (UniProt P05129); test: Inhibition of PKCgamma (unknown origin) at 10 uM; conditions: not given

Structure (SMILES)	inhibition
Oc1ccc(C2=NN(c3ccc(Cl)cc3)C(c3ccc(Cl)cc3)C2)cc1O (stereo unspecified)	inactive

molecular target: Protein kinase C delta type (Homo sapiens) (UniProt Q05655); test: Inhibition of PKCdelta (unknown origin) at 10 uM; conditions: not given
Sequence (Q05655 whole entry, looked up): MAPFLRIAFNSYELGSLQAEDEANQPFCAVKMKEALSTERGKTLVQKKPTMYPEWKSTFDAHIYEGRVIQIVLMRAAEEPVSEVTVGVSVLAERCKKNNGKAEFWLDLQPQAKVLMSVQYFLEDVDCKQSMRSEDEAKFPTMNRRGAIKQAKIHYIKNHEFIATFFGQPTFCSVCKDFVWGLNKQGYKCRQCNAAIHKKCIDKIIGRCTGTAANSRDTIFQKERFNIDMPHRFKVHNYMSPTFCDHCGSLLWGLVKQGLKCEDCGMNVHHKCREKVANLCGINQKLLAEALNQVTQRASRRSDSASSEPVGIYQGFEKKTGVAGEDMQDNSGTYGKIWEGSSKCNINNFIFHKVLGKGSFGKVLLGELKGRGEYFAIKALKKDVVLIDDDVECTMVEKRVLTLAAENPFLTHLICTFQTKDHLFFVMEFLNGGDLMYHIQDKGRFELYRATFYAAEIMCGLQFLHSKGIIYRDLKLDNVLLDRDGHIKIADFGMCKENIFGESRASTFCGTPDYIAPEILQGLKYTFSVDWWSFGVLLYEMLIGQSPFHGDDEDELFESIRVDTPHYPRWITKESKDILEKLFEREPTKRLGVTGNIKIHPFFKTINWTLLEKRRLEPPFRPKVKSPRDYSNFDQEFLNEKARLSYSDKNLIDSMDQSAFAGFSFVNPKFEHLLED

Structure (SMILES)	inhibition
Oc1ccc(C2=NN(c3ccc(Cl)cc3)C(c3ccc(Cl)cc3)C2)cc1O (stereo unspecified)	inactive

molecular target: T3, Protein kinase C epsilon type (Homo sapiens) (UniProt Q02156); test: Inhibition of PKCepsilon (unknown origin) at 10 uM; conditions: not given
T3 sequence (whole entry): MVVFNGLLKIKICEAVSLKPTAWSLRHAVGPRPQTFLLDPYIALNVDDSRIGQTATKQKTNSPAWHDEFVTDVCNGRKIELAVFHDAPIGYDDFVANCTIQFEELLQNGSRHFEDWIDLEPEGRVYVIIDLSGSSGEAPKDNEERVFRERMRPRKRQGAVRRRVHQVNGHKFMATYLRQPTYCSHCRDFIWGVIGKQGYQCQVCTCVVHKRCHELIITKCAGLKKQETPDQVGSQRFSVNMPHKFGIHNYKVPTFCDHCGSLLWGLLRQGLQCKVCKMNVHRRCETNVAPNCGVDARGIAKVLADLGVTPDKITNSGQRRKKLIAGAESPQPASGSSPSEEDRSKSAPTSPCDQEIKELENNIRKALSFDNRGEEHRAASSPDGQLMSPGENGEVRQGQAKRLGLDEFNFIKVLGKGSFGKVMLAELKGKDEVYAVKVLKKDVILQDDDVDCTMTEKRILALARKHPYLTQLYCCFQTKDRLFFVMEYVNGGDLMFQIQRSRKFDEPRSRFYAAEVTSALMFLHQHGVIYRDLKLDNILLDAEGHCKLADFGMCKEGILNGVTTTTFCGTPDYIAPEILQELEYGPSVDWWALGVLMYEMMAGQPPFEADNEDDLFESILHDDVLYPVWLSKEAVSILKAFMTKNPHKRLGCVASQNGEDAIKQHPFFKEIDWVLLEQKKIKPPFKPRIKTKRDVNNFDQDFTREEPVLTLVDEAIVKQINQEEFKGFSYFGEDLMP

Structure (SMILES)	inhibition
Oc1ccc(C2=NN(c3ccc(Cl)cc3)C(c3ccc(Cl)cc3)C2)cc1O (stereo unspecified)	11%

molecular target: Protein kinase C eta type (Homo sapiens) (UniProt P24723); test: Inhibition of PKCeta (unknown origin) at 10 uM; conditions: not given
Sequence (P24723 whole entry): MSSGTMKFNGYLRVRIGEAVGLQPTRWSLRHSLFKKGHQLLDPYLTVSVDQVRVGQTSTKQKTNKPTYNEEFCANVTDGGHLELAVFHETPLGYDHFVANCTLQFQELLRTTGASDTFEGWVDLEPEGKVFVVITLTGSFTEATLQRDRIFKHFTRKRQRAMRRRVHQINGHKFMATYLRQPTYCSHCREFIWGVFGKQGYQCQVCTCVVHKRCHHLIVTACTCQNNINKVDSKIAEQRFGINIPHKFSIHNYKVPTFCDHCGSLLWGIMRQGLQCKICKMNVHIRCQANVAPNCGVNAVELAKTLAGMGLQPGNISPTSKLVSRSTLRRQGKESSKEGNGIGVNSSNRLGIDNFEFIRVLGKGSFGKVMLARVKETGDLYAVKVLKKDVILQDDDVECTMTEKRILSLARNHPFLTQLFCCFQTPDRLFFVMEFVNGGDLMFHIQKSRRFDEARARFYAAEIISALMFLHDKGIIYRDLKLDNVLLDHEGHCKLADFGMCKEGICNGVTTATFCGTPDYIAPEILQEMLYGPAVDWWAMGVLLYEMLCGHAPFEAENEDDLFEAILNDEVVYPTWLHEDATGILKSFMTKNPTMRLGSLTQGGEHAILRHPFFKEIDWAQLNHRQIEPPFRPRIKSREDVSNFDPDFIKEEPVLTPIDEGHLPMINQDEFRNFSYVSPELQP

Structure (SMILES)	inhibition
Oc1ccc(C2=NN(c3ccc(Cl)cc3)C(c3ccc(Cl)cc3)C2)cc1O (stereo unspecified)	inactive

molecular target: Protein kinase C theta type (Homo sapiens) (UniProt Q04759); test: Inhibition of PKCtheta (unknown origin) at 10 uM; conditions: not given

Structure (SMILES)	inhibition
Oc1ccc(C2=NN(c3ccc(Cl)cc3)C(c3ccc(Cl)cc3)C2)cc1O (stereo unspecified)	inactive

molecular target: Serine/threonine-protein kinase N1 (Homo sapiens) (UniProt Q16512); test: Inhibition of PKN1 (unknown origin) at 10 uM; conditions: not given
Sequence (Q16512 2-942 limits assumed): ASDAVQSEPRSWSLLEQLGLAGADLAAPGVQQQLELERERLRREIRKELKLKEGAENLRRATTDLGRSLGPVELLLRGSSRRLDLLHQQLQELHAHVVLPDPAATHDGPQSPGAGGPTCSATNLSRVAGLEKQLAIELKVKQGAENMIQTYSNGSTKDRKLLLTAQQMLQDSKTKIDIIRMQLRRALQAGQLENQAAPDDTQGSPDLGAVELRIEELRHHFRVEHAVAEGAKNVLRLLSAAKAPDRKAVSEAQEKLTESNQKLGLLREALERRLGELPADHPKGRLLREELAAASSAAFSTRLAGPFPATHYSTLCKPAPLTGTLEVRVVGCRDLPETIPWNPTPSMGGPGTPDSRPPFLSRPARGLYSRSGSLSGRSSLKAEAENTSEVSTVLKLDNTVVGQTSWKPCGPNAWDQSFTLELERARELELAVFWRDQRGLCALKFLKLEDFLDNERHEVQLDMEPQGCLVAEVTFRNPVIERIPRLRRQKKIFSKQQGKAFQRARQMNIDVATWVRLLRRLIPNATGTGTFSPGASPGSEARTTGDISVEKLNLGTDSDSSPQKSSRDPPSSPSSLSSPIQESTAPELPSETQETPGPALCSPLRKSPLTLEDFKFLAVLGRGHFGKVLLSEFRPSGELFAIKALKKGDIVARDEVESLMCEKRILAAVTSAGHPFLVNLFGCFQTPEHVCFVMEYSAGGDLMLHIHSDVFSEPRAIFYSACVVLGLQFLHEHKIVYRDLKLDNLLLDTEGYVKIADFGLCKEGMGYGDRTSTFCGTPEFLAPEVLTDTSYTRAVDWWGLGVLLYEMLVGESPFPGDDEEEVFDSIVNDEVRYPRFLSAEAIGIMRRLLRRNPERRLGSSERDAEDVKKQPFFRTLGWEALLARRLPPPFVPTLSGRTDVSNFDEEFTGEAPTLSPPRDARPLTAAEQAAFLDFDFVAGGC

Structure (SMILES)	inhibition
Oc1ccc(C2=NN(c3ccc(Cl)cc3)C(c3ccc(Cl)cc3)C2)cc1O (stereo unspecified)	11%

molecular target: T4, 3-phosphoinositide-dependent protein kinase 1 (Homo sapiens) (UniProt O15530); test: Inhibition of PDK1 (unknown origin) at 10 uM; conditions: not given
T4 sequence (whole entry): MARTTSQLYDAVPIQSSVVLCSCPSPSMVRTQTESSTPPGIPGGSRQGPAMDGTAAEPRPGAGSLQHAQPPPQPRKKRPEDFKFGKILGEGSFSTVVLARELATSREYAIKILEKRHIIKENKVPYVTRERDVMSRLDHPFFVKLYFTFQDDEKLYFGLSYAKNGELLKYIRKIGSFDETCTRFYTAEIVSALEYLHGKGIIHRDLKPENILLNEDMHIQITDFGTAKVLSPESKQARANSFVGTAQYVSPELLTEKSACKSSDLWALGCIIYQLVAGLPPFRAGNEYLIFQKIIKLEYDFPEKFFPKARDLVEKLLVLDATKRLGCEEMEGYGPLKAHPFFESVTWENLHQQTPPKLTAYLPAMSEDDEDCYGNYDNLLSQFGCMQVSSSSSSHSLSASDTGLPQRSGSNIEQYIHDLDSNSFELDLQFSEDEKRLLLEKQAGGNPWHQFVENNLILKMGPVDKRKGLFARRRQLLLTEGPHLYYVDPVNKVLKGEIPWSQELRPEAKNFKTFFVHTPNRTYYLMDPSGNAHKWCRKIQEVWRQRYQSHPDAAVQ

Structure (SMILES)	inhibition
Oc1ccc(C2=NN(c3ccc(Cl)cc3)C(c3ccc(Cl)cc3)C2)cc1O (stereo unspecified)	1%

molecular target: Protein kinase C zeta type (Homo sapiens, UniProt Q05513, V297L); test: Inhibition of recombinant GST-fused PKCzeta Val297Leu mutant (unknown origin) expressed in HEK293 cells using myelin basic protein as substrate measured after 40 mins in presence of [gamma32P]ATP by phosphorimaging analysis; conditions: not given
Sequence (Q05513 whole entry V297L, the tested form may be a part): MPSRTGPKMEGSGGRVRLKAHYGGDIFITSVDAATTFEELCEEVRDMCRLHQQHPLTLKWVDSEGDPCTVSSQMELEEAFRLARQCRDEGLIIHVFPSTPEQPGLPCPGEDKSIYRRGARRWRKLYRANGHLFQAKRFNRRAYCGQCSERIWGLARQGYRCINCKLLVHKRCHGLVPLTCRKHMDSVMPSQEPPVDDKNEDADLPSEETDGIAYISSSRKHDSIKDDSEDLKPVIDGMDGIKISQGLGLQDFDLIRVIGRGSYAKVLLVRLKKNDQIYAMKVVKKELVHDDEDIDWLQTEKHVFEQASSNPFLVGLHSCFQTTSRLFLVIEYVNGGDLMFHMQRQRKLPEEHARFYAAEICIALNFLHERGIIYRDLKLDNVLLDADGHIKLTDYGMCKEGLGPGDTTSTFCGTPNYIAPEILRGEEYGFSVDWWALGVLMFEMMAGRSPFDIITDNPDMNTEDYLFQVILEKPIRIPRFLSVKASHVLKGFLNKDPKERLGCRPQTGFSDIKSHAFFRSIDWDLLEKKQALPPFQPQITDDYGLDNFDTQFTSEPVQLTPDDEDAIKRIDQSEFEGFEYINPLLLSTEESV

Structure (SMILES)	IC50
Oc1ccc(C2=NN(c3ccc(Cl)cc3)C(c3ccc(Cl)cc3)C2)c(O)c1 (stereo unspecified)	9700 nM
Oc1ccc(C2=NN(c3cccc(Cl)c3)C(c3cccc(Cl)c3)C2)cc1 (stereo unspecified)	4100 nM

organism: Homo sapiens; test: Selectivity ratio of IC50 for recombinant GST-fused PKCzeta Val297Leu mutant (unknown origin) expressed in HEK293 cells to IC50 for recombinant GST-fused PKCzeta (unknown origin) expressed in HEK293 cells; assay type: cell-based; conditions: not given

Structure (SMILES)	Ratio IC50
Oc1ccc(C2=NN(c3ccc(Cl)cc3)C(c3ccc(Cl)cc3)C2)c(O)c1 (stereo unspecified)	2.2
Oc1ccc(C2=NN(c3cccc(Cl)c3)C(c3cccc(Cl)c3)C2)cc1 (stereo unspecified)	10.2

tested on: RAW264.7; test: Inhibition of LPS-induced nitric oxide production in mouse RAW264.7 cells at 7.5 uM measured after 20 hrs by griess assay relative to control; assay type: functional; conditions: RAW264.7, 20 h

Structure (SMILES)	inhibition at 7.5 µM
Oc1ccc(C2=NN(c3ccc(Cl)cc3)C(c3cccc(Cl)c3)C2)cc1 (stereo unspecified)	34%
Oc1ccc(C2=NN(c3cccc(Cl)c3)C(c3ccc(Cl)cc3)C2)cc1 (stereo unspecified)	42.8%
Oc1ccc(C2=NN(c3ccc(Cl)cc3)C(c3ccc(Cl)cc3)C2)c(O)c1 (stereo unspecified)	31.4%
Oc1ccc(C2=NN(c3ccc(Cl)cc3)C(c3ccc(Cl)cc3)C2)cc1 (stereo unspecified)	62.4%
Oc1ccc(C2=NN(c3ccccc3Cl)C(c3ccccc3Cl)C2)cc1 (stereo unspecified)	34%
COc1cc(/C=C/C(=O)CC(=O)/C=C/c2ccc(O)c(OC)c2)ccc1O [CURCUMIN]	97%
Oc1ccc(C2=NN(c3cccc(Cl)c3)C(c3ccc(O)c(F)c3)C2)c(O)c1 (stereo unspecified)	87%
Oc1cccc(C2=NN(c3ccc(Cl)cc3)C(c3ccc(Cl)cc3)C2)c1 (stereo unspecified)	45%
Oc1ccc(C2=NN(c3ccc(Cl)cc3)C(c3ccc(Cl)cc3)C2)cc1O (stereo unspecified)	100%
Oc1ccc(C2CC(c3ccccc3O)=NN2c2cccc(Cl)c2)cc1F (stereo unspecified)	86%
Oc1ccc(C2=NN(c3cccc(Cl)c3)C(c3cccc(Cl)c3)C2)cc1 (stereo unspecified)	31.5%

tested on: RAW264.7; test: Inhibition of LPS-induced nitric oxide production in mouse RAW264.7 cells measured after 20 hrs by griess assay; assay type: functional, cell-based; conditions: RAW264.7, 20 h

Structure (SMILES)	IC50
COc1cc(/C=C/C(=O)CC(=O)/C=C/c2ccc(O)c(OC)c2)ccc1O [CURCUMIN]	800 nM
Oc1ccc(C2=NN(c3cccc(Cl)c3)C(c3ccc(O)c(F)c3)C2)c(O)c1 (stereo unspecified)	3100 nM
Oc1ccc(C2=NN(c3ccc(Cl)cc3)C(c3ccc(Cl)cc3)C2)cc1O (stereo unspecified)	300 nM
Oc1ccc(C2CC(c3ccccc3O)=NN2c2cccc(Cl)c2)cc1F (stereo unspecified)	2900 nM

tested on: not listed separately; test: Cytotoxicity against mouse RAW264.7 cells assessed as live cells at 7.5 uM after 20 hrs by MTT assay relative to control; assay type: cell-based; conditions: read-out: Activity

Structure (SMILES)	viability at 20 h, 7.5 µM
Oc1ccc(C2=NN(c3ccc(Cl)cc3)C(c3cccc(Cl)c3)C2)cc1 (stereo unspecified)	96%
Oc1ccc(C2=NN(c3cccc(Cl)c3)C(c3ccc(Cl)cc3)C2)cc1 (stereo unspecified)	91%
Oc1ccc(C2=NN(c3ccc(Cl)cc3)C(c3ccc(Cl)cc3)C2)c(O)c1 (stereo unspecified)	88%
Oc1ccc(C2=NN(c3ccc(Cl)cc3)C(c3ccc(Cl)cc3)C2)cc1 (stereo unspecified)	99%
Oc1ccc(C2=NN(c3ccccc3Cl)C(c3ccccc3Cl)C2)cc1 (stereo unspecified)	92%
Oc1cccc(C2=NN(c3ccc(Cl)cc3)C(c3ccc(Cl)cc3)C2)c1 (stereo unspecified)	91%
Oc1ccc(C2=NN(c3ccc(Cl)cc3)C(c3ccc(Cl)cc3)C2)cc1O (stereo unspecified)	94%
Oc1ccc(C2=NN(c3cccc(Cl)c3)C(c3cccc(Cl)c3)C2)cc1 (stereo unspecified)	86%
